Tests used:
Conditions in all cases: amount of applied herbicide 320 g/ha
chickweed = test: Test Example 4: herbicidal effect by soil treatment (Table 19, symbol P); assay type: in vivo, common chickweed (Stellaria media)
Method in brief: (§1)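 Seeds were sown in sterilized diluvial soil and covered with about 1.5 cm of soil. An emulsion formulation diluted with water to a predetermined herbicide amount was sprayed evenly onto the soil surface. Plants grew in a greenhouse at 25° C. to 30° C., and the effect was scored three weeks after application using criteria from an earlier test.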

redroot pigweed = test: Test Example 4: herbicidal effect by soil treatment (Table 19, symbol N); assay type: in vivo, redroot pigweed (Amaranthus retroflexus)
Method in brief: as §1

windgrass = test: Test Example 4: herbicidal effect by soil treatment (Table 19, symbol L); assay type: in vivo, windgrass (Apera spica-venti)
Method in brief: as §1

velvetleaf = test: Test Example 4: herbicidal effect by soil treatment (Table 19, symbol M); assay type: in vivo, velvetleaf (Abutilon theophrasti)
Method in brief: as §1

blackgrass = test: Test Example 4: herbicidal effect by soil treatment (Table 19, symbol J); assay type: in vivo, blackgrass (Alopecurus myosuroides)
Method in brief: as §1

false cleavers = test: Test Example 4: herbicidal effect by soil treatment (Table 19, symbol Q); assay type: in vivo, false cleavers (Galium spurium)
Method in brief: as §1

lambsquarters = test: Test Example 4: herbicidal effect by soil treatment (Table 19, symbol O); assay type: in vivo, lambsquarters (Chenopodium album)
Method in brief: as §1

Italian ryegrass = test: Test Example 4: herbicidal effect by soil treatment (Table 19, symbol K); assay type: in vivo, Italian ryegrass (Lolium multiflorum)
Method in brief: as §1

green foxtail = test: Test Example 4: herbicidal effect by soil treatment (Table 19, symbol G); assay type: in vivo, green foxtail (Setaria viridis)
Method in brief: as §1

southern crabgrass = test: Test Example 4: herbicidal effect by soil treatment (Table 19, symbol F); assay type: in vivo, southern crabgrass (Digitaria ciliaris)
Method in brief: as §1

wild oat = test: Test Example 4: herbicidal effect by soil treatment (Table 19, symbol I); assay type: in vivo, wild oat (Avena fatua)
Method in brief: as §1

persian speedwell = test: Test Example 4: herbicidal effect by soil treatment (Table 19, symbol R); assay type: in vivo, Persian speedwell (Veronica persica)
Method in brief: as §1

barnyard grass = test: Test Example 4: herbicidal effect by soil treatment (Table 19, symbol H); assay type: in vivo, barnyard grass (Echinochloa crus-galli)
Method in brief: as §1

For `CCCC(=O)Oc1c(C)nn(C)c(=O)c1-c1c(-c2ccc(OC)c(OC)c2)sc2cc(OC)ccc12` [3-081], the “P: chickweed, herbicidal effect grade” value (chickweed) was 0 (Herbicidal rate of 5% or less (almost no effect)), the “N: redroot pigweed, herbicidal effect grade” value (redroot pigweed) was 0 (Herbicidal rate of 5% or less (almost no effect)) and the “L: windgrass, herbicidal effect grade” value (windgrass) was 0 (Herbicidal rate of 5% or less (almost no effect)). For the same molecule, the “M: velvetleaf, herbicidal effect grade” value (velvetleaf) was 0 (Herbicidal rate of 5% or less (almost no effect)), the “J: blackgrass, herbicidal effect grade” value (blackgrass) was 0 (Herbicidal rate of 5% or less (almost no effect)) and the “Q: false cleavers, herbicidal effect grade” value (false cleavers) was 0 (Herbicidal rate of 5% or less (almost no effect)). For the same molecule, the “O: lambsquarters, herbicidal effect grade” value (lambsquarters) was 0 (Herbicidal rate of 5% or less (almost no effect)), the “K: Italian ryegrass, herbicidal effect grade” value (Italian ryegrass) was 0 (Herbicidal rate of 5% or less (almost no effect)) and the “G: green foxtail, herbicidal effect grade” value (green foxtail) was 0 (Herbicidal rate of 5% or less (almost no effect)). For the same molecule, the “F: southern crabgrass, herbicidal effect grade” value (southern crabgrass) was 0 (Herbicidal rate of 5% or less (almost no effect)), the “I: wild oat, herbicidal effect grade” value (wild oat) was 0 (Herbicidal rate of 5% or less (almost no effect)) and the “R: persian speedwell, herbicidal effect grade” value (persian speedwell) was 2 (Herbicidal rate of 20% or more and less than 40%). For the same molecule, the “H: barnyard grass, herbicidal effect grade” value (barnyard grass) was 0 (Herbicidal rate of 5% or less (almost no effect)).

From US20230085307A1, “PYRIDAZINONE COMPOUND AND HERBICIDE” (NISSAN CHEMICAL CORPORATION, priority 2019, published 2023)
